According to US20110059886A1, “HCV NS3-NS4A Protease Inhibition” (priority 2004, published 2011):
pIC50, pKi: −log10 of the molar value. Where two headings read alike, the source gives them in different places. Non-standard residues stand in square brackets, D forms with d. Residues, ends and D or L forms follow the SMILES beside them. Abu = CC[C@H](N)C(=O)O

Key:
[1] = biological target: T1, HCV NS3 protease genotype 3a (Hepatitis C virus genotype 3a, UniProt Q81258, I1084M/L1045K/S1134A/S1198A); assay: Kinetic parameters of NS5AB substrate, HPLC peptide cleavage assay; format: biochemical
T1 construct: DNA fragment encoding residues Ala^1-Ser^181 of several isolates of genotype 2a or 2b; hexa-histidine (C); made in house; host or cells: E. coli BL21/DE3 pLysS
T1 sequence (Q81258 1033-1213, looked up, stated change not applied, other chains not shown): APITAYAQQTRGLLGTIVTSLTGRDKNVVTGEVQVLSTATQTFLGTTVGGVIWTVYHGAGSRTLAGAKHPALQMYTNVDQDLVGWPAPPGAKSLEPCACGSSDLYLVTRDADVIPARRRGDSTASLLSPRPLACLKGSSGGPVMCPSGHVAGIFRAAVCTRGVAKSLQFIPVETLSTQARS
Procedure: (§1) Peptide sequences are shown below.
(§2) For determination of the kinetic parameters Km and Vmax, the NS5AB substrate was varied between 3 μM and 200 μM. The ratio of the product peak area to the reaction time yielded a rate of enzyme catalyzed hydrolysis. These rate vs. substrate concentration data points were fit to the Michaelis-Menten equation using non-linear regression. The value of kcat was determined from Vmax using the nominal protease concentration and a fully cleaved substrate peptide as an instrument calibration standard.

[2] = biological target: T2, HCV NS3 protease genotype 2a (Hepatitis C virus genotype 2a, UniProt P26660, L1043K/T1046A/V1183I); assay: as above; format: biochemical
T2 construct: DNA fragment encoding residues Ala^1-Ser^181 of several isolates of genotype 2a or 2b; hexa-histidine (C); made in house; host or cells: E. coli BL21/DE3 pLysS
Procedure: as §1, §2

NS3/4A protease = settings: WO 02/018369, cited from earlier work
[3] = biological target: T1, HCV NS3 protease genotype 3a; assay: HPLC peptide cleavage assay, apparent Ki; format: biochemical; settings: 15 min preincubation, NS5AB at Km
Text: as §1
(§3) Biophys. Acta. 874, pp. 44-53 (1986)].

[4] = biological target: T2, HCV NS3 protease genotype 2a; assay: HPLC peptide cleavage assay, apparent Ki; format: biochemical; settings: 15 min preincubation, NS5AB at Km
Text: as §1, §3

[5] = biological target: T1, HCV NS3 protease genotype 3a; assay: Inhibition constant from steady-state rates of progress curves; format: biochemical; settings: steady-state portion of progress curves, Morrison fit, read-out: Ki using steady-state rates
Procedure: (§4) The rates of onset of slow binding inhibition were determined by a modification of the method for measurement of progress curves described by Narjes et al. [Narjes F. et al., Biochemistry 39, pp. 1849-1861 (2000)]. […] The reaction was initiated by addition of an aliquot of pre-heated enzyme stock to the compound-substrate mixture to yield final concentrations of 6 to 12 μM RET-S1 and 0.5 nM to 4 nM HCV NS3 protease. […] T., Adv. Enzymol. Relat. Areas Mol. Biol. 61, pp. 201-301 (1988)].
as §3

[6] = biological target: T2, HCV NS3 protease genotype 2a; assay: as above; format: biochemical; settings: steady-state portion of progress curves, Morrison fit, read-out: Ki using steady-state rates
Procedure: as §4, §3

NS3-4A serine protease = NS3-4A serine protease (Hepatitis C virus genotype 1a, UniProt P27958); assay: Enzyme assays with KK-4A peptide and FRET substrate, mode of binding
NS3-4A serine protease, sequence (P27958 1027-1208, other chains not shown): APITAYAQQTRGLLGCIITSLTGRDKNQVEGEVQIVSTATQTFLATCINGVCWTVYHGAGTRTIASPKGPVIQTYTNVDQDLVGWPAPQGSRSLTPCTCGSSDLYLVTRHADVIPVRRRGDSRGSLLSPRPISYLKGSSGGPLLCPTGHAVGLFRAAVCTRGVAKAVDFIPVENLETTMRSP

[7] = biological target: T1, HCV NS3 protease genotype 3a; assay: Fluorescence peptide assay, potency with extended incubation; format: biochemical; settings: IC50 after extended preincubation taken as Ki of tightly bound complex, read-out: Ki following extended incubation
[8] = biological target: T2, HCV NS3 protease genotype 2a; assay: Progress curve analysis of slow binding inhibition; format: biochemical
Text: (§5) F(t)=Vs×t+(Vi−Vs)×(1−exp (−kobs×t))/kobs+C Equation 1:
(§6) kobs=koff+(kon×[I])/(1+[S]/Km) Equation 2:

[9] = biological target: T1, HCV NS3 protease genotype 3a; assay: Progress curve analysis of slow binding inhibition; format: biochemical
Text: as §5, §6

[10] = biological target: T2, HCV NS3 protease genotype 2a; assay: Fluorescence peptide assay, potency with extended incubation; format: biochemical; settings: IC50 after extended preincubation taken as Ki of tightly bound complex, read-out: Ki following extended incubation
[11] = test system: Cells containing hepatitis C virus (HCV) replicon; assay: HCV replicon cell assay; format: cell-based; settings: 48 h, read-out: (concentration at which 50% inhibition of HCV RNA level is observed)
Procedure: Cells were obtained according to the method of Lohmannn et al., Science, 285, pp. 110-113 (1999). Cells containing hepatitis C virus (HCV) replicon were maintained in DMEM containing 10% fetal bovine serum (FBS), 0.25 mg per ml of G418, with appropriate supplements (media A).
On day 1, replicon cell monolayer was treated with a trypsin:EDTA mixture, removed, and then media A was diluted into a final concentration of 100,000 cells per ml wit. 10,000 cells in 100 ul were plated into each well of a 96-well tissue culture plate, and cultured overnight in a tissue culture incubator at 37° C.
On day 2, compounds (in 100% DMSO) were serially diluted into DMEM containing 2% FBS, 0.5% DMSO, with appropriate supplements (media B). The final concentration of DMSO was maintained at 0.5% throughout the dilution series. […]
A Taqman real-time RT-PCR quantification assay was set up with two sets of specific primers and probe. […] Total RNA extractants from treated HCV replicon cells was added to the PCR reactions for quantification of both HCV and BVDV RNA in the same PCR well. […] The level of HCV RNA in each well was calculated according to a standard curve run in the same PCR plate. The percentage of inhibition or decrease of HCV RNA level due to compound treatment was calculated using the DMSO or no compound control as 0% of inhibition. […]

[12] = test system: CC[C@H](NC(=O)[C@@H](NC(=O)[C@@H](NC(=O)[C@H](CC(=O)O)NC(=O)[C@@H](N)CCC(=O)O)C(C)C)C(C)C)C(=O)N[C@@H](CS)C(=O)N[C@@H](CO)C(=O)N[C@@H](CCSC)C(=O)N[C@@H](CO)C(=O)N[C@@H](Cc1ccc(O)cc1)C(=O)O; assay: purified protein, by the assay type; settings: other: genotype 1a; NS5AB substrate; pH 7.8; 40.0 °C
[13] = biological target: RET-S1 fluorescent peptide (AnaSpec, San Jose, Calif.)
[14] = biological target: NS5AB peptide substrate, based on the NS5A/NS5B cleavage site for genotype 1a HCV

## CC[C@H](NC(=O)[C@@H](NC(=O)[C@@H](NC(=O)[C@H](CC(=O)O)NC(=O)[C@@H](N)CCC(=O)O)C(C)C)C(C)C)C(=O)N[C@@H](CS)C(=O)N[C@@H](CO)C(=O)N[C@@H](CCSC)C(=O)N[C@@H](CO)C(=O)N[C@@H](Cc1ccc(O)cc1)C(=O)O [NS5AB, NH2-EDVV-(alpha)Abu-CSMSY-COOH] (H-EDVV[Abu]CSMSY-OH)
[1]
  Km: 70 µM
[2]
  Km: 11 µM

## CCC[C@H](NC(=O)[C@@H]1[C@H]2CCC[C@H]2CN1C(=O)[C@@H](NC(=O)[C@@H](NC(=O)c1cnccn1)C1CCCCC1)C(C)(C)C)C(=O)C(=O)NC1CC1 [VX-950]
NS3/4A protease; read-out: Ki
  pKi: 8.10
NS3/4A protease; read-out: steady state binding constant (ki*)
  pKi: 8.52
[3]
  pKi: 6.19
[4]
  pKi: 7.40
[5]
  pKi: 6.57
[6]
  pKi: 7.49
NS3-4A serine protease
  mode of binding to the NS3-4A serine protease: reversible, covalent, competitive, tight and slow binding
[7]
  pKi: 6.34
[8]
  pKi: 7.17
[9]
  pKi: 6.36
[10]
  pKi: 7.43
[11]
  pIC50: 6.45

## HCV NS3 protease genotype 1a (Hepatitis C virus (isolate H77))
[12]
  Km: 25 µM
  kcat/Km: 30000 M⁻¹ s⁻¹

## HCV NS3 protease, genotype 1a (enzyme)
[13]
  kcat/Km: 170000 M⁻¹ s⁻¹
[14]
  kcat/Km: 30000 M⁻¹ s⁻¹

## HCV NS3 serine protease domain, genotype 2a consensus sequence (enzyme)
[13]
  kcat/Km: 65000 M⁻¹ s⁻¹
[14]
  kcat/Km: 31000 M⁻¹ s⁻¹

## HCV NS3 serine protease domain, genotype 3a consensus sequence (enzyme)
[13]
  kcat/Km: 22000 M⁻¹ s⁻¹
[14]
  kcat/Km: 5200 M⁻¹ s⁻¹
